{
  "source": "paper PMC3433414",
  "about": "“Oral Administration of the Pimelic Diphenylamide HDAC Inhibitor HDACi 4b Is Unsuitable for Chronic Inhibition of HDAC Activity in the CNS In Vivo” (PLoS ONE, 2012)",
  "key": {"[1]": {"tested_on": "P-glycoprotein (Pgp, MDR1)", "assay": "Effective efflux ratio in MDR1-MDCK cells", "type": "in vitro ADME", "settings": "human, pH 7.4; MDCK overexpressing MDR1", "procedure": "The MDR1-MDCKII and wild type MDCKII cell lines (obtained from SOLVO Biotechnology) were cultured in accordance with the guidelines provided by SOLVO Biotechnology. Both wild-type MDCK and MDR1-MDCK cells were seeded at a cell density of 2.3×10^5 cells/well into 24-well Transwell plates and cultured for three days to form monolayers. Test compound was loaded into the donor compartments of the Transwell plate (24-well) bearing MDR1-MDCK or wild type MDCK monolayers. Test compound was added to either the apical or basolateral chambers of the Transwell plate assembly at a concentration of 10 µM in Hanks’ Balanced Salt Solution containing 25 mM HEPES (pH 7.4). Lucifer Yellow was added to the apical buffer in all wells and its permeation monitored to assess integrity of the cell layer. […]\nAfter 1 h incubation at 37°C, aliquots were taken from both chambers and added to acetonitrile containing analytical internal standard (carbamazepine) in a 96-well plate. Concentrations of compound in the samples were measured by LC-MS/MS. Concentrations of LY in the samples were measured using a fluorescence plate reader.\nThe apparent permeability (Papp) values of test compound were determined for both the apical to basal (A>B) and basal to apical (B>A) permeation and the efflux ratio (B>A: A>B) determined in both the wild type MDCK and MDR1-MDCK cells. […]"}, "HDAC9": {"biological_target": "T1, HDAC9 (Homo sapiens, UniProt Q9UKV0)", "T1 construct": "HDAC9 (αα 604–1066; cat # 50009); purchased BPS Bioscience (San Diego, CA) 50009", "T1 sequence (Q9UKV0 604-1066 isoform Q9UKV0-5)": "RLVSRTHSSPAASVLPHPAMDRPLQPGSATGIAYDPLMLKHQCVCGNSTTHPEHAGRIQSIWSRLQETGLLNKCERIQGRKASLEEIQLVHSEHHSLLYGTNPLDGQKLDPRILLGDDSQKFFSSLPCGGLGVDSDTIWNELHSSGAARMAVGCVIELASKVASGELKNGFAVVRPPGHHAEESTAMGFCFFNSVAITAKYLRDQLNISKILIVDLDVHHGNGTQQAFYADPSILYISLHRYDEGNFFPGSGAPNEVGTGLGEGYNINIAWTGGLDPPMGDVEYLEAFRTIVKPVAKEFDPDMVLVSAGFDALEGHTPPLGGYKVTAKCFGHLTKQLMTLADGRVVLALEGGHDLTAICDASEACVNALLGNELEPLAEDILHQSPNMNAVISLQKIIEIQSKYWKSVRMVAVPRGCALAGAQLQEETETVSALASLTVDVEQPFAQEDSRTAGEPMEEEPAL", "assay": "Two-step fluorogenic deacetylase assay, recombinant HDAC9", "type": "biochemical", "settings": "up to 50 µM", "from_the_text": "To assess the biochemical and cellular potency of 4b and its conversion products/metabolites, we utilized the two-step fluorogenic assay which measures the HDAC-mediated catalytic conversion of synthetic acetylated lysine substrates. In brief, on deacetylation of the substrates by HDAC activity, a protease site is unmasked which allows subsequent trypsin-mediated cleavage and release of the highly flourescent AMC molecules in a subsequent step of the assay. The substrates used were Lys_Ac_AMC (Bachem I-1875) for HDAC3 and (Ac)Arg-Gly-Lys(Ac) (Bachem I-1925) for HDAC1 and HDAC2. […] However, the relatively labile and sterically more demanding trifluoracetyl group is readily hydrolyzed by the catalytically less avid Class IIa enzymes, allowing measurement of Class IIa activity using the 2-step fluorogenic assay. […]\nFor evaluation of the class selectivity of the compounds, we assessed inhibition against purified recombinant human full length HDAC1 (cat# 50051), HDAC2 (cat# 50052), HDAC3-NcoR2 (cat# 50003) and HDAC8 (cat# 50008): as representative of Class I activity; catalytic domain HDAC4(αα 648–1057), HDAC5 (αα 657–1123; cat # 50005), HDAC7 (αα 518-end; cat # 50007) and HDAC9 (αα 604–1066; cat # 50009) activity: representing all Class IIa activity; and full length HDAC6 (cat#50006): representing Class IIb activity. […]"}},
  "data": [
    {"smiles": "Nc1ccccc1NC(=O)CCCCCC(=O)Nc1ccccc1", "note": "[Compound 4b]", "values": [
      {"measurement": "efflux ratio at 1 h, 10 µM", "setting": "[1]", "value": 4.9},
      {"measurement": "activity against HDAC9", "setting": "HDAC9", "value": "No activity"}
    ]}
  ]
}
